From patent US11285169B2, “Methods for modulating chemotherapeutic cytotoxicity” (The United States of America, as represented by the …, priority 2013, dated 2022)

Legend:
CD47 null Jurkat cells = tested on: CD47 null Jurkat cells
Protocol: (§1) Wild type or CD47 null Jurkat T cells were plated at a density of 7×10^3/well in 96 well plates or 500 cells/well in 1536 well plates. Cells were treated with increasing amounts of doxorubicin. Cell viability was measured 48 or 72 hours after treatment by MTS reduction or using CellTiter-Glo® cell viability assay (Promega, Madison Wis.).
(§2) Wild type or CD47 null Jurkat cells were plated at a density of 7×10^3/well in 96 well plates. Cells were treated with 10 μg/ml 5-FU or […] camptothecin. Cell viability was measured 72 hours after treatment by MTS reduction.

wild type Jurkat cells = tested on: wild type Jurkat cells
Protocol: as §1, §2

PINK = PINK immunostaining of tumor and heart sections; format: in vivo, mouse; conditions: heart
Protocol: Briefly, slides were deparaffinized in xylene and rehydrated in graded alcohol. Antigen retrieval was performed using microwave antigen retrieval method with Target Retrieval Solution, pH 6.1 (Dako, Carpinteria, Calif.). […] Slides were incubated with respective antibodies. Sections were treated with streptavidin-biotin and DAB (3,3-diaminobenzidine) was used as chromogen. Hematoxylin was used for counterstaining. The intensity of the staining was evaluated under light microscopy.
Tissue sections from the initial tumor model were immune-stained for PINK.

B16 melanoma cells = experiment: Oxygen consumption rate, XF24 analyzer, B16 cells; format: cell-based, mouse; conditions: CD47 morpholino 10 μM 48 hours, doxorubicin 10 μg/ml 1 hour
Protocol: (§3) 4T1 breast cancer cells or B16 melanoma cells (2×10^4 cells) were plated in the presence or absence of CD47 morpholino (10 μM). After a 48 hour period of incubation, cells were treated with doxorubicin for 1 hour (10 μg/ml). OCR and ECAR were measured using an XF24 analyzer (Seahorse Bioscience, N. Billerica, Mass.).
(§4) To start elucidating the molecular mechanism of breast cancer sensitization to anthracycline therapy with CD47 blockade oxygen consumption rate (OCR) was tested. OCR is a measurement of mitochondrial respiration and is extremely sensitive to changes in metabolic demand (Tao et al., Anal. Biochem. 381:43-52, 2008). Increased OCR is an indicator of mitochondrial dysfunction in transformed cells associated with tumor aggressiveness and resistance to therapy (Vaupel and Mayer, Int. J. Biochem. Cell Biol. 44:1477-1481, 2012). To measure OCR, 4T1 breast cancer cells or B16 melanoma cells were plated in 24-well plates using the XF24 flux analyzer (Seahorse Bioscience). Cells were exposed to known mitochondrial poisons (oligomicin, carbonilcyanide p-triflouromethoxy-phenylhydrazone FCCP, or […]) to determine basal and maximal OCR.

[1] = tested on: Glut-1 glucose transporter; experiment: Glut-1 expression in tumors by western blot; format: in vivo, mouse; conditions: western blot of excised tumors
Protocol: Glucose uptake was measured 24 hours after treatment by adding 2-NBDG, which is a fluorescently labeled deoxyglucose analog that is used primarily to directly monitor glucose uptake by living cells. This confirmed that the combination treatment modified glucose metabolism to sensitize cells to Dox treatment (FIG. 10). Furthermore, blockade of CD47 in combination with dox decreased expression of the Glut-1 glucose transporter in vivo (FIG. 11). Tumors of mice were exised and protein expression was determined by western blot hybridization. Expression of Glut-1 was not affected by treatment with saline, doxorubicin or CD47 morpholino (CD47M) alone. […] Glut-1 facilitates the transport of glucose in cells and is a poor prognostic factor in breast cancer and other cancer types.

Atg5 and Atg7 = experiment: Autophagy gene expression in hearts of WT and CD47 null mice; format: in vivo, mouse; conditions: 24 hours of treatment
Protocol: Samples were collected after 24 hours of treatment.
WT and CD47 null mice were treated with doxorubicin to determine effects on autophagy gene expression.

4T1 breast cancer cells [2] = experiment: Oxygen consumption rate and extracellular acidification rate, XF24 analyzer, 4T1 cells; format: cell-based, mouse; conditions: for extracellular acidification rate (ECAR): 4T1B cells, same treatments as OCR; for oxygen consumption rate (OCR): 4T1 cells, CD47 morpholino 10 μM 48 hours, doxorubicin 10 μg/ml 1 hour
Protocol: as §3, §4
It is well known that cancer cells show increased glycolytic flux. […] The extracellular acidification rate (ECAR) was measured in 4T1B cells using the XF24 flux analyzer following the same treatments stated above.

PINK and PARKIN = PINK and PARKIN gene expression by qRT-PCR in 4T1 cells; format: cell-based, mouse; conditions: single agents
Protocol: Autophagy can promote either survival or death of tissue. Selective mitochondrial turnover by mitophagy in tumor tissue can shift this pathway to a pro-death response (Gargini et al., Autophagy 7:466-476, 2011). To further understand the mechanism of mitophagy in breast cancer cells, 4T1 breast cancer cells were plated and treated with CD47 morpholino for 48 hours. […] Gene expression was determined by qRT-PCR.

4T1 breast tumors = experiment: 4T1 breast cancer cells in mammary fat pad of Balb/c mice: tumor growth, weight, lung metastasis; format: in vivo, mouse; conditions: for tumor weight at end of study: excised tumors; for tumor growth (tumor volume): weekly treatment, followed for 30 days, Dox i.v., CD47 M i.p. 48 hours before
Protocol: Balb/c mice were injected with 5×10^3 4 T1 breast cancer cells in the mammary fat pad. Tumors were left untreated, treated with 100 μl of 10 μg/mL doxorubicin (Dox) or with 10 μg/mL Dox in combination with 10 μM CD47 Morpholino (CD47 M). Doxorubicin treatment was given intravenously weekly. Treatment with CD47 M was given intraperitoneally 48 hours prior to doxorubicin injection.
4T1B breast cancer cells were implanted in the mammary fat-pad of Balb/C mice. The mice were treated weekly with saline, doxorubicin, CD47 M, or the combination of CD47 M with doxorubicin. Tumor growth was measured using calipers and was followed for 30 days. Treatment with CD47 morpholino was done two days prior to each treatment with doxorubicin for four weeks.
Tumors were excised at the end of the study and weighed. Tumors of mice treated with saline tripled in size (FIG. 1B).
The 4T1 breast cancer model is a well known model for metastasis of orthotopic breast tumors to lung and other organs. Mice were injected in the mammary fat pad with 4T1 cells. CD47 morpholino was administered intraperitoneally at a dose of 10 μM per mouse. Doxorubicin was adminstered intravenously at a dose of 10 mg/kg. The CD47 morpholino was administered weekly and the Doxorubicin administration was done weekly 48 hours after CD47 treatment. Five mice per group were treated. Lungs were exised, paraffin embedded, and hematoxylin and eosin stain was used to determine tissue structure.

4T1 breast cancer cells [3] = experiment: Cell viability by MTS reduction, 4T1 cells with or without CD47 morpholino; format: cell-based, mouse; conditions: 10 μM CD47 morpholino 48 hours, doxorubicin 72 hours
Protocol: Cells were plated in the presence or absence of 10 μM CD47 morpholino. After 48 hours, cells were treated with the indicated amounts of doxorubicin (10 μg/ml in FIGS. 7B and C). Cell viability was measured 72 hours after treatment by MTS reduction (FIGS. 7A and D) or 24 hours after treatment by lactate dehydrogenase (LDH) release (FIGS. 7B and C). * p<0.001. Control cells were untreated and Endoporter indicates treatment with vehicle without morpholino in FIGS. 7B and C.
4T1 breast cancer cells were treated with CD47 morpholino and treated with increasing concentrations of doxorubicin.

lung tissue = conditions: mouse, in vivo
cardiac tissue = conditions: mouse, in vivo
From the text: Hearts were collected from mice at the end of the tumor studies after four rounds of weekly doxorubicin treatment in the presence or absence of CD47 blockade. Sections were paraffin embedded and stained with H&E to determine tissue histology.
Tissue sections were subjected to TUNEL staining to detect cell death.

CD47 = experiment: Western blot of CD47 protein in tumors; format: in vivo, mouse; conditions: 48 hours after treatment

Row | Compound | cytotoxicity (CD47 null Jurkat cells; human) [%] | cytotoxicity (wild type Jurkat cells; human) [%] | cell viability (CD47 null Jurkat cells; CD47 deficient Jurkat T cells, increasing concentration of doxorubicin, 72 hours) | cell viability (wild type Jurkat cells; WT Jurkat T cells, increasing concentration of doxorubicin, 72 hours) | PINK expression in hearts (PINK) | oxygen consumption rate (OCR) (B16 melanoma cells) | Glut-1 expression in tumors [1] | Atg5 and Atg7 mRNA levels in hearts (Atg5 and Atg7; CD47 null mice) | Atg5 mRNA level in hearts (Atg5 and Atg7; WT mice) | extracellular acidification rate (ECAR) (4T1 breast cancer cells [2]) | oxygen consumption rate (OCR) (4T1 breast cancer cells [2]) | PINK and PARKIN gene expression (in words) (PINK and PARKIN) | tumor weight at end of study (4T1 breast tumors) | tumor growth (tumor volume) (4T1 breast tumors) | cell viability (4T1 breast cancer cells [3]) | lung tissue condition / fibrosis (lung tissue) | cardiac tissue histology (H&E) (cardiac tissue) | cell death in cardiac tissue (TUNEL staining) (cardiac tissue) | CD47 protein in tumors (CD47)
1 | CC[C@@]1(O)C(=O)OCc2c1cc1n(c2=O)Cc2cc3ccccc3nc2-1 [Camptothecin] | 56 | 79 | – | – | – | – | – | – | – | – | – | – | – | – | – | – | – | – | –
2 | COc1cccc2c1C(=O)c1c(O)c3c(c(O)c1C2=O)C[C@@](O)(C(=O)CO)C[C@@H]3O[C@H]1C[C@H](N)[C@H](O)[C@H](C)O1 [Doxorubicin] | – | – | dose-dependent protection | decreased viability | No change in PINK expression | showed the same pattern | not affected | markedly increased | slight reduction of Atg5 | high acidification in the media | showed the same pattern | minimal effects | reduction in tumor weight | slightly delayed tumor growth | reduction in cell viability | less fibrosis | characteristic degeneration of cardiac muscle | high TUNEL positive staining | –
3 | CD47 morpholino: antisense morpholino oligonucleotide complementary to human and murine CD47, CGTCACAGGCAGGACCCACTGCCCA (SEQ ID NO: 3) (all phosphorodiamidate morpholino (PMO)) | – | – | – | – | – | caused a reduction in OCR | not affected | – | – | slight decrease in the ECAR | caused a reduction in OCR | minimal effects | reduction in tumor weight | slightly delayed tumor growth | – | – | – | – | decrease in CD47 protein
